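1) Cells in 96-well plates. 2) Compound, 48 h, 5 concentrations. 3) Linear interpolation between surrounding doses. 4) Unreached endpoint = highest concentration. Abbreviation: GI50, concentration required for 50% inhibition of growth. At the TGI there is no net growth.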
Columns and labels:
Test in all cases: growth of human tumour cells (NCI), 48 h
[1] = tested on: SF-539 CNS
[2] = tested on: SK-MEL-2 melanoma
[3] = tested on: PC-3 prostate
[4] = tested on: SF-295 CNS
[5] = tested on: OVCAR-5 ovarian
[6] = tested on: NCI-H522 lung
[7] = tested on: RPMI-8226 leukemia
[8] = tested on: COLO 205 colon

| Structure (SMILES) | GI50 [1] [µM] | TGI [1] [µM] | GI50 [2] [µM] | TGI [2] [µM] | GI50 [3] [µM] | TGI [3] [µM] | GI50 [4] [µM] | TGI [4] [µM] | GI50 [5] [µM] | TGI [5] [µM] | GI50 [6] [µM] | TGI [6] [µM] | GI50 [7] [µM] | TGI [7] [µM] | GI50 [8] [µM] | TGI [8] [µM] |
| --- | --- | --- | --- | --- | --- | --- | --- | --- | --- | --- | --- | --- | --- | --- | --- | --- |
| Oc1ccc(N=Nc2ccccn2)c(O)c1 | 0.999 | 61.8 | 7.44 | > 100 | 0.775 | > 100 | 0.522 | > 100 | 2.23 | > 100 | 2.68 | > 100 | 0.863 | > 100 | 0.732 | > 100 |
| Cc1cc(C(=O)c2ccccc2)c(C)c2c1[nH]c1ccc(Cl)cc12 | 0.0415 | 0.799 | 0.0829 | 29.2 | 0.0526 | > 43.9 | 0.0294 | 0.363 | 0.294 | 28 | 0.0267 | 4.9 | 0.0581 | 22 | 0.102 | 1.36 |
| C=C1C(=O)O[C@H]2[C@H]1CC/C(COC(=O)NCc1ccc(Cn3c(=O)sn(-c4ccccc4)c3=O)cc1)=C\CC[C@@]1(C)O[C@@H]21 | 1.57 | 3.06 | 2.39 | 6.34 | 2.36 | 5.63 | 8.52 | 21.8 | 2.51 | 6.73 | 1.74 | 3.48 | 2.03 | 6.26 | 1.77 | 3.44 |
| CCCCCCCCCCCCCCCC1=NC(C)(C)CN1C(C)C | 1.63 | 2.98 | 1.63 | 3.07 | 1.37 | 3.68 | 1.74 | 3.3 | 1.55 | 2.93 | 1.55 | 3.02 | 1.04 | 2.82 | 1.5 | 2.83 |
| COC(=O)C(C)NC(=O)c1ccccc1I(OS(=O)(=O)C(F)(F)F)c1ccccc1 (centres undefined) | 22.7 | 45.6 | 41.6 | > 100 | 22 | 53.1 | > 44.7 | > 63.6 | 16.9 | 36.7 | 23.9 | 64.9 | 3 | 25.8 | 23.6 | 45.9 |
| CC1(C)C(=O)/C(=C\c2cccnc2)C[C@]2(C)[C@H]3CC[C@@H]4[C@@H](C(=O)/C=C/c5ccncc5)CC[C@@]4(C)[C@]3(C)CC[C@@H]12 | 1.76 | 3.25 | 1.93 | 4.38 | 1.65 | 4.55 | 1.95 | 4.31 | 2.45 | 5.36 | 1.66 | 4.6 | 1.21 | 5.43 | 1.88 | 3.87 |
| CN(C)CCCn1c(-c2nonc2N)nc2cnccc21 | > 25 | > 25 | > 25 | > 25 | > 25 | > 25 | > 25 | > 25 | > 25 | > 25 | > 25 | > 25 | > 25 | > 25 | > 25 | > 25 |
| CC1=NN(c2nc(N)nc(/C=C\c3ccc([N+](=O)[O-])s3)n2)C(C)(C)C1 | > 100 | > 100 | > 100 | > 100 | > 100 | > 100 | > 100 | > 100 | > 100 | > 100 | > 100 | > 100 | > 100 | > 100 | > 100 | > 100 |
| O=C1C(Cl)=C(Nc2cccc(C(F)(F)F)c2)C(=O)N1Cc1ccc(Cl)cc1 | 0.128 | 2.09 | 4.02 | > 25.9 | 0.298 | 16.8 | – | 16.2 | 2.2 | 23.5 | 2.11 | 25.2 | – | – | 0.867 | 20.1 |
| CS(=O)(=O)N(c1cc(-c2ccc3ncnc(Nc4cccc(Cl)c4)c3c2)cnc1Cl)S(C)(=O)=O | 0.533 | 4.33 | 0.469 | 2.09 | 0.539 | 3.63 | 0.542 | 3.17 | 0.181 | 6.55 | 0.645 | 7.74 | 0.522 | 3.62 | 0.421 | 2.04 |
| O=C(NC(=S)Nc1cc(Cl)ccc1O)c1cccc(Br)c1 | 7.58 | 35.8 | 12.1 | > 100 | 6.78 | > 100 | 3.59 | 24.9 | 57.1 | > 100 | 6.65 | > 100 | 4.15 | > 100 | 34.1 | > 100 |
| COc1c(B(O)O)cc(F)cc1-c1nc2ccc3[nH]ncc3c2c2c1CCCC2 | 0.0686 | 2.24 | 2.67 | 7.05 | 1.9 | 11.3 | 1.76 | 10.8 | 2.46 | 16.9 | 1.03 | 11.7 | 1.12 | 5.58 | 1.61 | 4.97 |
| CC(O)c1cc(C(=O)N[C@@H](C)Cn2ccc(-c3ccc(C#N)c(Cl)c3)n2)n[nH]1 (some centres undefined) | > 100 | > 100 | 46.6 | > 100 | 22.1 | > 100 | 23.9 | > 100 | > 100 | > 100 | 39.4 | > 100 | 15.3 | 80.6 | 54 | > 100 |
| Cn1cc(C2=C(N3CCOCC3)C(=O)NC2=O)c2ccccc21 | > 25 | > 25 | > 25 | > 25 | > 25 | > 25 | > 25 | > 25 | > 25 | > 25 | > 25 | > 25 | > 25 | > 25 | > 25 | > 25 |
| Cc1cccc2c(O)cc(=O)oc12 | – | > 100 | – | – | – | – | – | > 100 | – | > 100 | – | – | – | > 100 | – | – |
| O=C(/C=C\c1ccccc1)N1CCc2ccccc2C1 | – | > 100 | – | 91.3 | – | > 100 | – | > 100 | – | – | – | – | – | 52.4 | – | 57.1 |
| CC(=O)[CH-]C(C)=O.CC(=O)[CH-]C(C)=O.CC[O-].CC[O-].[Ti+4] | > 100 | > 100 | > 100 | > 100 | – | – | > 100 | > 100 | > 100 | > 100 | > 100 | > 100 | > 100 | > 100 | > 100 | > 100 |
| COc1ccc(Cn2cc3c(c2-c2cc(OC)c(OC)c(OC)c2)CCc2cnoc2-3)cc1 | 0.283 | 2.39 | 3.24 | > 100 | 0.473 | > 100 | 0.129 | 0.821 | 3.68 | > 100 | 0.107 | 1.17 | 0.356 | – | – | – |
| Nc1c(C(=O)Nc2cccc(Cl)c2Cl)sc2nc3c(cc12)C(=O)CCC3 | > 100 | > 100 | – | > 100 | – | – | 0.476 | > 100 | > 100 | > 100 | > 100 | > 100 | > 100 | > 100 | 1.61 | > 100 |
| O=C(CCCCC(=O)N/N=C\c1ccccc1O)N/N=C\c1ccccc1O | 3.66 | > 100 | 6.66 | > 100 | 5.65 | > 100 | 1.98 | 6.55 | > 100 | > 100 | – | – | – | – | 3.67 | > 100 |
| CC(=O)[O-].O=C([CH-]C(=O)c1ccccc1)c1ccccc1.O=C([CH-]C(=O)c1ccccc1)c1ccccc1.[Sm+3] | 14.6 | 45.2 | 2.03 | 6.93 | – | – | 2.66 | 17.2 | 21.4 | 63.1 | 1.43 | 7.49 | 5.57 | 33.8 | 7.89 | 22.8 |
| Cc1ccc(C(=O)CC2=Nc3nnc(CCCCCCCc4nnc5n4C(=O)C(CC(=O)c4ccc(C)cc4)=N5)n3C2=O)cc1 | – | > 100 | – | – | – | – | – | > 100 | – | > 100 | – | > 100 | – | > 100 | – | > 100 |
| NC(=S)NN=C1CSSC1 | 2.75 | 7.38 | 3.23 | 18.9 | 3.57 | 24.5 | – | – | 5.26 | 40.9 | 2.95 | 15.4 | 11.4 | 55.6 | 2.4 | 5.67 |
| COc1cc2c3c(n(C)c(=O)c2cc1OC)-c1cc2c(cc1/C3=C\CCNCCCN)OCO2 | 1.65 | 9.95 | 5.09 | > 100 | 2.09 | 10.2 | – | – | 3.04 | 13.4 | 1.67 | 25.5 | – | – | 0.487 | 15.4 |
